This passage reports IC50 results from patent US8557816B2, “Aurora kinase modulators and method of use” (Amgen Inc., priority 2007, dated 2013).

The target of one assay is T1, AuroraB (Homo sapiens, UniProt Q96GD4).
T1 construct: 20 μL of AuroraB FL H is for a final volume of 41 μL; His
Description: AuroraB Homogeneous Time Resolved Fluorescent (HTRF) kinase assay. The format is biochemical. The conditions noted are these: average; read-out: AurB_IC50_IP (uM Avg). Summed up: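 Read-out is time-resolved FRET between europium anti-phospho-H3 antibody and streptavidin-APC, added in EDTA buffer to stop the reaction and equilibrated about 60 min (ex 320, em 615 and 655 nm). Preceding reaction: ~90 min, full-length enzyme, ATP, 0.1 μM biotin-Histone H3 substrate, Mg/Mn HEPES buffer pH 7.5.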
Background: TR-FRET usually uses a lanthanide donor and a delayed reading to cut background.

A further assay deals with T2, AuroraA-TPX2 (Homo sapiens, UniProt O14965).
T2 construct: 20 μL of AuroraA-TPX2 KD GST for a final volume of about 41 μL; GST
T2 sequence (O14965 133-383 limits assumed): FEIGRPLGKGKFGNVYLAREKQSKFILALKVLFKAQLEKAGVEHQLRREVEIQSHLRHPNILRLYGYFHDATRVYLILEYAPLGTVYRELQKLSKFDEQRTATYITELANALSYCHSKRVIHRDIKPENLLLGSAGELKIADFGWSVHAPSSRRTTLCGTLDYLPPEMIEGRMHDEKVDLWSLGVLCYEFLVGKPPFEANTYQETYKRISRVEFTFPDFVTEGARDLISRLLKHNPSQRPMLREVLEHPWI
T2 sequence (Q9ULW0 1-43 partner limits assumed): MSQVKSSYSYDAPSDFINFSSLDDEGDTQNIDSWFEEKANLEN
Description: AuroraA-TPX2 Homogeneous Time Resolved Fluorescent (HTRF) kinase assay. The format is biochemical. The conditions noted are these: average; read-out: AurA_IC50_IP (uM Avg). An outline of the steps: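 HTRF read-out (Eu 615 nm to APC 655 nm) of phosphorylated biotin-PLK, detected with 0.02 nM europium anti-phosphoPLK antibody and 0.0005 mg/mL SA-APC after overnight equilibration.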

SMILES strings stand for the structures.

T1 sequence (Q96GD4 whole entry): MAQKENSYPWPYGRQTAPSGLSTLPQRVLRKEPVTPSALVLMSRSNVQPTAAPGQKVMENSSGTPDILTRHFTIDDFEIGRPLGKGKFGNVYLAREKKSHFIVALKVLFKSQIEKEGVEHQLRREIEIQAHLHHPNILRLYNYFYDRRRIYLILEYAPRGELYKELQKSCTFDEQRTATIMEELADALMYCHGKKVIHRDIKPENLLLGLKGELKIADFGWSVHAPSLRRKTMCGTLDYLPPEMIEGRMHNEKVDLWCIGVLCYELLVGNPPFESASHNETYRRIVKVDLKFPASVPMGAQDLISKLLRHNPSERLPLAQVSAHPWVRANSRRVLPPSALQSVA

As to `c1ccc(-c2nnc(Nc3ccc(Sc4ccnc5cc[nH]c45)cc3)c3ccccc23)cc1` [compound 462, 4-phenyl-N-(4-(1H-pyrrolo[3,2-b]pyridin-7-ylthio)phenyl)-1-phthalazinamine], the IC50 at AuroraB worked out at 0.01 µM; at AuroraA-TPX2 it was 0.557 µM.
On the same counts, the results for `Clc1ccc(-c2nnc(Nc3ccc(Sc4ccnc5cc[nH]c45)cc3)c3ccccc23)cc1` [compound 463, 4-(4-chlorophenyl)-N-(4-(1H-pyrrolo[3,2-b]pyridin-7-ylthio)phenyl)-1-phthalazinamine] are 0.008 µM and 0.146 µM.
The corresponding values for `Cc1csc(-c2nnc(Nc3ccc(Sc4ccnc5cc[nH]c45)cc3)c3ccccc23)c1` [compound 464, 4-(4-methyl-2-thienyl)-N-(4-(1H-pyrrolo[3,2-b]pyridin-7-ylthio)phenyl)-1-phthalazinamine] are 0.006 µM and 0.088 µM.
The corresponding values for `Clc1ccc(-c2nnc(Nc3ccc(Sc4ccnc5ccoc45)cc3)c3ccccc23)cc1` [compound 465] are 0.012 µM and 0.093 µM.
`c1ccc(-c2nnc(Nc3ccc(Sc4ccnc5ccoc45)cc3)c3ccccc23)cc1` [compound 466]: the IC50 at AuroraB amounted to 0.013 µM; at AuroraA-TPX2, 0.431 µM.
As to `c1ccc2c(-c3ccc4c(c3)OCO4)nnc(Nc3ccc(Sc4ccnc5ccoc45)cc3)c2c1` [compound 467], the IC50 at AuroraB stood at 0.01 µM; at AuroraA-TPX2, 0.095 µM.
On the same counts, the results for `Cc1csc(-c2nnc(Nc3ccc(Sc4ccnc5ccoc45)cc3)c3ccccc23)c1` [compound 468] are 0.029 µM and 0.129 µM.
On the same counts, the results for `COCCn1ccc2nccc(Sc3ccc(Nc4nnc(-c5ccc(Cl)cc5)c5ccccc45)cc3)c21` [compound 469, 4-(4-chlorophenyl)-N-(4-((1-(2-(methyloxy)ethyl)-1H-pyrrolo[3,2-b]pyridin-7-yl)thio)phenyl)-1-phthalazinamine] are 0.053 µM and 0.11 µM.
On the same counts, the results for `COCCn1ccc2nccc(Sc3ccc(Nc4nnc(-c5cc(C)cs5)c5ccccc45)cc3)c21` [compound 470, N-(4-((1-(2-(methyloxy)ethyl)-1H-pyrrolo[3,2-b]pyridin-7-yl)thio)phenyl)-4-(4-methyl-2-thienyl)-1-phthalazinamine] are 0.051 µM and 0.041 µM.
For the compound `CC(C)n1ccc2nccc(Sc3ccc(Nc4nnc(-c5ccc(Cl)cc5)c5ccccc45)cc3)c21` [compound 471, 4-(4-chlorophenyl)-N-(4-((1-(1-methylethyl)-1H-pyrrolo[3,2-b]pyridin-7-yl)thio)phenyl)-1-phthalazinamine], the IC50 was 0.049 µM on AuroraB and 0.09 µM at AuroraA-TPX2.
In the case of `Cc1csc(-c2nnc(Nc3ccc(Sc4ccnc5ccn(C(C)C)c45)cc3)c3ccccc23)c1` [compound 472, N-(4-((1-(1-methylethyl)-1H-pyrrolo[3,2-b]pyridin-7-yl)thio)phenyl)-4-(4-methyl-2-thienyl)-1-phthalazinamine], the IC50 on AuroraB is 0.099 µM; on AuroraA-TPX2, 0.064 µM.
Take `COCCOc1ccc(-c2nnc(Nc3ccc(Sc4ccnc5cc(OC)cnc45)cc3)c3ccccc23)cc1OCCOC` [compound 473]: the values for the IC50 at AuroraB and on AuroraA-TPX2 were 0.011 µM and 0.073 µM, respectively.
Take `COCCOc1ccc(-c2nnc(Nc3ccc(Sc4ccnc5cc(OC)cnc45)cc3)c3ccccc23)cc1` [compound 474]: the IC50 on AuroraB stood at 0.016 µM; on AuroraA-TPX2, 0.051 µM.
In the case of `COCCOCCOc1ccc2nccc(Sc3ccc(Nc4nnc(-c5ccc(Cl)cc5)c5ccccc45)cc3)c2n1` [compound 475], the IC50 on AuroraB was found to be 0.026 µM; at AuroraA-TPX2, 0.035 µM.
Regarding `COCCOCCn1c(=O)ccc2nccc(Sc3ccc(Nc4nnc(-c5ccc(Cl)cc5)c5ccccc45)cc3)c21` [compound 476], the IC50 at AuroraB is 0.293 µM; on AuroraA-TPX2, 0.746 µM.
On the same counts, the results for `COc1cnc2c(Sc3ccc(Nc4nnc(-c5ccc(C)c(N)c5)c5ccccc45)cc3)ccnc2c1` [compound 477] are 0.026 µM and 0.009 µM.
The corresponding values for `COC1CCN(c2nnc(Nc3ccc(Oc4ccnc5ccoc45)cc3)c3ccccc23)CC1` [compound 478] are 0.074 µM and 2.03 µM.
For the compound `Cc1ccc(-c2nnc(Nc3ccc(Sc4ccnc5ccoc45)cc3)c3ccccc23)cc1N` [compound 479], the IC50 at AuroraB and on AuroraA-TPX2 was above 125 µM in each case.
For the compound `Cc1ccc(-c2nnc(Nc3ccc(Oc4ccnc5ccoc45)cc3)c3ccccc23)cc1N` [compound 480], the IC50 is 0.013 µM at AuroraB and 0.162 µM on AuroraA-TPX2.
On the same counts, the results for `Cc1ccc(-c2nnc(Nc3ccc(Sc4ccnc5ccoc45)cc3)c3ccccc23)cn1` [compound 481] are 0.002 µM and 0.341 µM.
For `Cc1ccc(-c2nnc(Nc3ccc(Sc4ccnc5ccoc45)cc3)c3ccccc23)nc1` [compound 482], the IC50 is 0.004 µM at AuroraB and 0.415 µM on AuroraA-TPX2.
On to `Clc1ccc(-c2nnc(Nc3ccc(Oc4ccnc5ccoc45)cc3)c3ccccc23)cc1` [compound 483], for which the figures for the IC50 on AuroraB and on AuroraA-TPX2 were 0.013 µM and 0.583 µM, respectively.
Turning to `C[Si](C)(C)c1cc2nccc(Sc3ccc(Nc4nnc(Cl)c5ccccc45)cc3)c2o1` [compound 484], the IC50 on AuroraB is 0.107 µM; on AuroraA-TPX2, above 125 µM.
Consider `COc1ccc(-c2nnc(Nc3ccc(Sc4ccnc5ccoc45)cc3)c3ccccc23)cn1` [compound 485], for which the IC50 on AuroraB is 0.005 µM; at AuroraA-TPX2 it was 0.479 µM.
In the case of `Clc1ccc(-c2nnc(Nc3ccc(Sc4ccnc5cc(C6CC6)oc45)cc3)c3ccccc23)cc1` [compound 486], the values for the IC50 at AuroraB and at AuroraA-TPX2 were 0.018 µM and 0.141 µM, respectively.
Consider `Cc1cccc(-c2nnc(Nc3ccc(Sc4ccnc5ccoc45)cc3)c3ccccc23)n1` [compound 488], for which the IC50 at AuroraB stood at 0.015 µM; on AuroraA-TPX2 it was 1.29 µM.
For the compound `N#Cc1cc2nccc(Sc3ccc(Nc4nnc(-c5ccc(Cl)cc5)c5ccccc45)cc3)c2o1` [compound 489], the values for the IC50 on AuroraB and on AuroraA-TPX2 were 0.019 µM and 0.09 µM, respectively.
On the same counts, the results for `Cc1ccc(-c2nnc(Nc3ccc(Sc4ccnc5cc(C#N)oc45)cc3)c3ccccc23)cc1N` [compound 490] are 0.013 µM and 0.09 µM.
The corresponding values for `Cc1cc2nccc(Sc3ccc(Nc4nnc(-c5ccc(Cl)cc5)c5ccccc45)cc3)c2o1` [compound 491] are 0.039 µM and 0.15 µM.
For the compound `Cc1cc2nccc(Sc3ccc(Nc4nnc(-c5ccc(C)c(N)c5)c5ccccc45)cc3)c2o1` [compound 492], the values for the IC50 on AuroraB and on AuroraA-TPX2 were 0.046 µM and 0.142 µM, respectively.
Regarding `Clc1ccc(-c2nnc(Nc3ccc(Sc4ccnc5cccnc45)cc3)c3ccccc23)nc1` [compound 493], the IC50 worked out at 0.002 µM on AuroraB and 0.02 µM on AuroraA-TPX2.
On the same counts, the results for `COc1cc2nccc(Sc3ccc(Nc4nnc(-c5cc(C)cs5)c5ccccc45)cc3)c2cn1` [compound 494] are 0.017 µM and 0.026 µM.
The corresponding values for `COc1cnc2c(Sc3ccc(Nc4nnc(-c5ccccc5F)c5ccccc45)cc3)ccnc2c1` [compound 495] are 0.026 µM and 0.15 µM.
The corresponding values for `FC(F)(F)Oc1ccc2c(Oc3ccc(Nc4nnc(-c5ccccc5)c5ccccc45)cc3)ccnc2c1` [compound 496] are 0.374 µM and 1.04 µM.
